Marks after values point to notes of the source that are not given here.
Columns and labels:
Type in all cases: in vivo
[1] = 28-day cattle study, orally administered Compound 6: growth and carcass measurements; settings: for Feed efficiency / Yield grade (YG) / area of the longissimus dorsi muscle at the twelfth rib: oral, 28 days
Procedure: Thirty-two Angus crossbred steers were blocked by weight into a heavy (4 heaviest blocks, avg. initial BW=1226 lb. (557 kg)) and a light (4 lightest blocks, avg. initial BW=1164 lb. (528 kg)) replication. The steers within each block were assigned to one of four treatments (8 steers/treatment) to investigate the effects of orally administered Compound 6 on the growth and carcass measurements when fed to cattle for 28 days immediately prior to slaughter. The treatments included a CONTROL (0.0 mg Compound 6 per kg BW), and three levels of Compound 6 (LOW, 0.125 mg Compound 6 per kg BW; MED, 0.250 mg Compound 6 per kg BW; HIGH, 0.500 mg Compound 6 per kg BW). Compound 6 was mixed with ground corn and fed to the steers as a top dress on a portion of their daily feed. The CONTROL steers received a similar amount of a ground corn top dress. The steers were required to consume the initial feed and top dress before the remaining amount of feed was issued. The basal ration was a commercially available feed (19.3% CP, DM basis). Both feed and water were available ad libitum. The steers were individually housed in 12 ft×48 ft pens equipped with an individual feed bunk and automatic waterer. On day 28 the steers were weighed and a blood sample collected prior to being shipped for slaughter and subsequent carcass evaluation.

[2] = Intravenous administration to cattle: serum non-esterified fatty acid (NEFA) and serum urea nitrogen (SUN) levels
Source text: Intravenous administration of the compounds of the present invention to cattle increases serum non-esterified fatty acids and decreases serum urea. In this Example, angus/angus cross calves, both heifers and steers, weighing approximately 282 pounds (128 kg) initially to 788 pounds (357.8 kg) over the course of these studies, were placed in pens at 5 calves per pen. The cattle were acclimated to the pens for at least 1 week prior to initiating the study.
Calves were fed ad libitum twice daily, (approximately 6-15 pounds (2.7-6.8 kg)/day). During the treatment day, in the A.M. period, the feeding times were staggered to ensure that all animals were fed approximately one hour before the treatments were administered. During the P.M. treatment period, the cattle were fed immediately after receiving the P.M. injection.
After taking a pretreatment (T=O) blood sample from each animal, a 40 μg per kilogram dose of a test compound was administered intravenously in the jugular vein at 6:30 A.M. and 2:30 P.M. Each test compound was administered at a concentration of 1.00-1.25 mg/ml in a treatment vehicle that was a 50/50 mixture of polyethylene glycol 200/water.
A blood sample was taken at fifteen minutes post-treatment (T+15 min). The calves were returned to their respective pens until their next treatment, approximately eight hours later. The next morning at 6:30 A.M. a blood sample was collected from all calves at 24 hours post-treatment (T+24 h). All blood samples were analyzed for the non-esterified fatty acid level (NEFA) and serum urea nitrogen level (SUN). The post-treatment NEFA and SUN levels in each individual animal were compared with the levels found before treatment.

[3] = Weight gain, feed efficiency, breast and leg quarter weights, last 28 days of growing period in broiler chickens; settings: for Bone-in, Skin-on Breast Weight / Bone-in, Skin-on leg Quarter Weight / Dressing Percentage / Fat Pad Weight / Final Weight Day 49 / Hot Carcass Weight / Interim Weight Day 35 / Pen Feed Intake / Total Weight Gain (d 21-49) / Viscera Weight / Weight Gain Period 1 (d 21-35) / Weight Gain Period 2 (d 35-49) / Feed Efficiency F/G: day 21-49; for Feed Efficiency F/G: pen feed intake/total pen weight; for improvement of feed efficiency (feed/gain) compared with control: 28-day treatment period
Source text: Approximately 2500 Peterson-Hubbard, day-old, male chicks were used in a randomized, complete-block design with 3 treatments (Control and Compound 6 at 3 and 15 PPM (mg/kg feed)). The testing facility contained two wings, each containing 30 pens. The pens in each wing were divided into 6 blocks of 5 pens. Treatments were randomly allotted within each block. Each treatment consisted of 12 pens with 10 birds per pen.
Day-of-age birds were obtained from Pine Manor Hatchery in Goshen, Ind. Approximately 40 birds per pen were set at random upon receipt. On day 16 of the growout period, all birds were weighed and the 15 birds closest to the block mean were selected. These birds were allowed to acclimate until day 21 of age. On this day, all remaining birds were weighed again, and the 10 birds/pen closest to the block mean were chosen for the treatment phase. Birds were provided ad libitum access to feed and water throughout the trial. All birds were fed a 23% crude protein corn-soy ration from day 1 until day 18 of age. The feed was changed to a 20% crude protein ration for day 18 to day 49. The treatment feed was mixed using the 20% crude protein basal ration. Treatments were administered in the feed from day 21 through day 49. An interim weight was taken on day 35. Feed consumption was calculated over the entire 28-day treatment period. Birds were weighed at trial completion (day 49), and were transported to Purdue University meat laboratory for slaughter and carcass measurements on day, 50. Weights of the hot carcass; fat pad; viscera; bone-in, skin-on breast; and bone-in, skin-on, leg quarter were taken on all animals.

## CC(C)(Cc1ccc(Oc2ncccc2C(N)=O)cc1)NC[C@H](O)COc1cccc2[nH]ccc12 [Compound 6, (S)-2-[4-[2-[2-Hydroxy-3-(1H-indol-4-yloxy)propylamino]-2-methylpropyl]-phenoxy]-3-pyridinecarboxamide]
[1]; Compound 6 treatments vs CONTROL, P<0.005
  Conformation score: higher
[1]; Compound 6 treatments vs CONTROL, P>0.78
  Fat thickness at the twelfth rib: not different
[1]; Compound 6 treatments vs CONTROL, F-test P=0.1138, Treatment P<0.05
  Dressing percent: to be higher
[1]; HIGH, 0.500 mg per kg BW
  Feed efficiency: 4.18 pound of feed per pound of gain
  Yield grade (YG): 2.46
  area of the longissimus dorsi muscle at the twelfth rib: 14.5 in^2
[1]; LOW, 0.125 mg per kg BW
  Feed efficiency: 4.36 pound of feed per pound of gain
  area of the longissimus dorsi muscle at the twelfth rib: 13.5 in^2
[1]; LOW, 0.125 mg per kg BW, lower value = more saleable meat
  Yield grade (YG): 2.76
[1]; MED, 0.250 mg per kg BW
  Feed efficiency: 4.19 pound of feed per pound of gain
  Yield grade (YG): 2.51
  area of the longissimus dorsi muscle at the twelfth rib: 14.3 in^2
[1]; among the treatments, P>0.12, calculated by Hankins and Howe equations
  carcass composition (% fat, % protein, % moisture, % bone): did not differ statistically
[1]; among the treatments, P>0.90
  USDA quality grade and marbling scores: Neither the USDA quality grade nor marbling scores differed
[1]; between the treatments (CONTROL, LOW, MED, HIGH), P>0.47
  Daily dry matter intake: did not differ
[2]; 40 μg per kilogram i.v. twice, T+24 h minus T=0, mean of five animals
  ΔNEFA 24 Hours: -1.44 µmol/L
[2]; 40 μg per kilogram i.v., T+15 min minus T=0, mean of five animals
  ΔNEFA 15 Min.: 40.7 µmol/L
[2]; Bos taurus, iv, 40 μg per kilogram i.v. twice, 24 hours post treatment vs baseline T=0, mean of five animals, read-out: Δ% SUN 24 Hours
  change in vivo at 0.04 mg/kg: -47%
[2]; fifteen minutes and twenty-four hours after administration
  lipolytic effects (non-esterified fatty acid levels): modest lipolytic effects
[2]; twenty-four hours after administration, compared with the corresponding carboxamide regioisomers
  anabolic effects (change in serum urea nitrogen levels): significantly greater
[3]; 3 PPM in feed
  Bone-in, Skin-on Breast Weight: 618.03* g
  Bone-in, Skin-on leg Quarter Weight: 665.64** g
  Dressing Percentage: 71.14**
  Fat Pad Weight: 51.67 g
  Final Weight Day 49: 2.78** kg
  Hot Carcass Weight: 1995.58** g
  Interim Weight Day 35: 1.66* kg
  Pen Feed Intake: 41.22 kg
  Total Weight Gain (d 21-49): 2.09** kg
  Viscera Weight: 265.82 g
  Weight Gain Period 1 (d 21-35): 0.96* kg
  Weight Gain Period 2 (d 35-49): 1.12** kg
  Feed Efficiency F/G: 2.04
[3]; 3 PPM, P=0.1426
  improvement of feed efficiency (feed/gain) compared with control: 6.85%
[3]; 3 PPM, P=0.0001
  increase in bone-in, skin-on, leg quarters weight: 10.63%
  increase in hot carcass weights over control: 6.50%
[3]; 3 PPM, P=0.4004
  decrease in viscera weights compared to control: 1.54%
[3]; 3 PPM, entire 28-day treatment period, P=0.0051
  increase in weight gain over control: 5.03%
[3]; 3 PPM, first 14 days of the treatment period, P=0.0395
  increase in weight gain over control: 3.22%
[3]; 3 PPM, last 14 days of treatment, P=0.0064
  increase in weight gain over control: 6.67%
[3]; 15 PPM in feed
  Bone-in, Skin-on Breast Weight: 600.55 g
  Bone-in, Skin-on leg Quarter Weight: 635.36** g
  Dressing Percentage: 71.16**
  Fat Pad Weight: 49.16 g
  Final Weight Day 49: 2.70 kg
  Hot Carcass Weight: 1928.17* g
  Interim Weight Day 35: 1.63 kg
  Pen Feed Intake: 39.09 kg
  Total Weight Gain (d 21-49): 2.01 kg
  Viscera Weight: 261.08 g
  Weight Gain Period 1 (d 21-35): 0.94 kg
  Weight Gain Period 2 (d 35-49): 1.07 kg
  Feed Efficiency F/G: 2.09
[3]; 15 PPM, P=0.3594
  improvement of feed efficiency (feed/gain) compared with control: 4.57%
[3]; 15 PPM, P=0.0003
  increase in bone-in, skin-on, leg quarters weight: 5.60%
[3]; 15 PPM, P=0.0434
  increase in hot carcass weights over control: 2.90%
[3]; 15 PPM, P=0.0764
  decrease in viscera weights compared to control: 3.29%
[3]; 15 PPM, entire 28-day treatment period, P=0.5419
  increase in weight gain over control: 1.01%
[3]; 15 PPM, first 14 days of the treatment period, P=0.7600
  increase in weight gain over control: 1.08%
[3]; 15 PPM, last 14 days of treatment, P=0.5028
  increase in weight gain over control: 1.90%
[3]; at either dose (3 PPM, 15 PPM)
  effect on fat pad weight (fat accretion): no significant effect
[3]; high dose (15 PPM), P=0.5351
  increase in breast muscle weight (bone and skin attached): 1.06%
[3]; low dose (3 PPM), P=0.0227
  increase in breast muscle weight (bone and skin attached): 4.00%
